Laboratory results: patent publication US20090023718A1 (Aton Pharma, Inc., priority 2003, published 2009)
Like-named read-outs stand apart in the source and are kept apart here.

Biological target: T1, histone deacetylase, subtype 1 (HDAC1) (Homo sapiens, UniProt Q13547)
T1 construct: Flag; made in house
Test: HDAC1-Flag assay (in vitro fluorescent deacetylation assay)
Format: biochemical
Conditions: epitope-tagged human HDAC1 complex, substrate at Km, mean ± spread (N), read-out: HDAC Inhibition (IC50) nm
Experimental: Novel compounds were tested for their ability to inhibit histone deacetylase, subtype 1 (HDAC1) using an in vitro deacetylation assay. The enzyme source for this assay was an epitope-tagged human HDAC1 complex immuno-purified from stably expressing mammalian cells. The substrate consisted of a commercial product containing an acetylated lysine side chain (BIOMOL Research Laboratories, Inc., Plymouth Meeting, Pa.). Upon deacetylation of the substrate by incubation with the purified HDAC1 complex, a fluorophore is produced that is directly proportional to the level of deacetylation.

[1] = Table 2, compounds of formula III
[2] = Table 3, compounds of formula IV
[3] = Table 1, compounds of formula II
[4] = Table 4, compounds of formula V
[5] = Table 5, other HDAC inhibitors of formula I

T1 sequence (Q13547 whole entry): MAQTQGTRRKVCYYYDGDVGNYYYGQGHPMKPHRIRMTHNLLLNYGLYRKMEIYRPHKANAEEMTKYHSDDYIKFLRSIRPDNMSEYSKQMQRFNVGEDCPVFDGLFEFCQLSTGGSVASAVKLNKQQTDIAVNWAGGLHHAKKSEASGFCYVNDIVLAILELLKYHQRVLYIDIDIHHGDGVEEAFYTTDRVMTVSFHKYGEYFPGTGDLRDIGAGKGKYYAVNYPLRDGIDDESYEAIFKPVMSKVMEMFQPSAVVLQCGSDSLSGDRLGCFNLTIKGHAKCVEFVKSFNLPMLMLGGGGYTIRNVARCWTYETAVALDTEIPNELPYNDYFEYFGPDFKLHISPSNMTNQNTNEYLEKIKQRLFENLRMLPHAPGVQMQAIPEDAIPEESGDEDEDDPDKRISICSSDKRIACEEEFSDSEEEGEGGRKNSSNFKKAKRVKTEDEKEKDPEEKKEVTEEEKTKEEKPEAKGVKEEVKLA

O=C(CCCCCN(CC(=O)N1CCC(Cc2ccccc2)CC1)CC(=O)N1CCC(Cc2ccccc2)CC1)NO [Compound 53, 6-{Bis-[2-(4-benzyl-piperidin-1-yl)-2-oxo-ethyl]-amino}-hexanoic acid hydroxyamide]
IC50 [1]: 873 ± 57.9 nM

O=C(CCCCCCC(=O)N(CCc1c[nH]c2ccccc12)Cc1ccc(Br)cc1)NO [Compound 60]
IC50 [2]: 387 ± 80.6 nM

O=C(CCCCCCC(=O)N1CCN(c2cccc(Cl)c2)CC1)NO [Compound 77, 8-[4-(3-Chloro-phenyl)-piperazin-1-yl]-8-oxo-octanoic acid hydroxyamide]
IC50 [2]: 39 ± 2.8 nM

CC(C)(C)c1ccc(NC(=O)CN(CC(=O)Nc2ccc(C(C)(C)C)cc2)C(=O)CCCCCC(=O)NO)cc1 [Compound 32]
IC50 [3]: 152 ± 48.7 nM

O=C(CCCCCN(CC(=O)NC1CCCCC1)CC(=O)NC1CCCCC1)NO [Compound 50, 6-(Bis-cyclohexylcarbamoylmethyl-amino)-hexanoic acid hydroxyamide]
IC50 [1]: 267 ± 32.5 nM

O=C(CCCCCN(CC(=O)N1CCCCC1)CC(=O)N1CCCCC1)NO [Compound 56, 6-[Bis-(2-oxo-2-piperidin-1-yl-ethyl)-amino]-hexanoic acid hydroxyamide]
IC50 [1]: 2080 ± 383 nM

O=C(CCCCCCN(CCc1c[nH]c2ccccc12)Cc1ccc(Br)cc1)NO [Compound 82]
IC50 [4]: 188 ± 72.8 nM

Cc1ccc(S(=O)(=O)Nc2ccc(NC(=O)CN(CC(=O)Nc3ccc(NS(=O)(=O)c4ccc(C)cc4)cc3)C(=O)CCCCCC(=O)NO)cc2)cc1 [Compound 28, Heptanedioic acid bis{[4-(toluene-4-sulfonylamino)-phenylcarbamoyl]-methyl}-amide hydroxyamide]
IC50 [3]: 33 ± 12.7 nM

CC(C)CNC(=O)CN(CCCCCC(=O)NO)CC(=O)NCC(C)C [Compound 51, 6-[Bis-(isobutylcarbamoyl-methyl)-amino]-hexanoic acid hydroxyamide]
IC50 [1]: 288 ± 53 nM

O=C(CCCCCCC(=O)N(Cc1ccccc1)Cc1ccccc1)NO [Compound 62]
IC50 [2]: 462 ± 51.6 nM

O=C(CCCCCCN(Cc1ccccc1)Cc1ccccc1)NO [Compound 80]
IC50 [4]: 374 ± 39.5 nM

O=C(CCCCCCC(=O)N(CC(=O)NC1CCCCC1)CC(=O)NC1CCCCC1)NO [Compound 21, Octanedioic acid bis-cyclohexylcarbamoylmethyl-amide hydroxyamide]
IC50 [3]: 539 ± 97 nM

O=C(CCC(=O)N1CCN(c2cccc(Cl)c2)CC1)NO [Compound 69]
IC50 [2]: 13000 nM

O=C(CCCCCC(=O)N(CC(=O)Nc1ccc(OCc2ccccc2)cc1)CC(=O)Nc1ccc(OCc2ccccc2)cc1)NO [Compound 16, Heptanedioic acid bis-[(4-benzyloxy-phenylcarbamoyl)-methyl]-amide hydroxyamide]
IC50 [3]: 91.5 ± 58.6 nM

O=C(CCCCCCC(=O)N(CC(=O)Nc1ccc(OCc2ccccc2)cc1)CC(=O)Nc1ccc(OCc2ccccc2)cc1)NO [Compound 22, Octanedioic acid bis-[(4-benzyloxy-phenylcarbamoyl)-methyl]-amide hydroxyamide]
IC50 [3]: 848 ± 481 nM

O=C(CCCCCCCN(CC(=O)NCCc1ccccc1)CC(=O)NCCc1ccccc1)NO [Compound 49, 8-[Bis-(phenethylcarbamoyl-methyl)-amino]-octanoic acid hydroxyamide]
IC50 [1]: 191 ± 20.5 nM

O=C(CCCCCCCCC(=O)N(CCc1ccccc1)Cc1ccccc1)NO [Compound 64]
IC50 [2]: 434 ± 2.8 nM

O=C(CCCCCC(=O)N(CC(=O)Nc1ccc2ncccc2c1)CC(=O)Nc1ccc2ncccc2c1)NO [Compound 2, Heptanedioic acid bis-(quinolin-ylcarbamoylmethyl)-amide hydroxyamide]
IC50 [3]: 5.5 ± 0.7 nM

O=C(CCCCCN(CC(=O)NCC1CCCCC1)CC(=O)NCC1CCCCC1)NO [Compound 52, 6-{Bis-[(cyclohexylmethyl-carbamoyl)-methyl]-amino}-hexanoic acid hydroxyamide]
IC50 [1]: 311 ± 24.7 nM

O=C(CCCCC(=O)N(Cc1ccccc1)Cc1ccccc1)NO [Compound 58]
IC50 [2]: 899 ± 243 nM

O=C(CCCCCC(=O)N(CC(=O)Nc1cccc(Oc2ccccc2)c1)CC(=O)Nc1cccc(Oc2ccccc2)c1)NO [Compound 30, Heptanedioic acid bis-[(3-phenoxy-phenylcarbamoyl)-methyl]-amide hydroxyamide]
IC50 [3]: 137 ± 18.3 nM

O=C(CCCCC(=O)N(CCc1ccccc1)Cc1ccccc1)NO [Compound 59]
IC50 [2]: 2590 ± 807 nM

O=C(CCCCCC(=O)N(CC(=O)Nc1ccc(N2CCOCC2)cc1)CC(=O)Nc1ccc(N2CCOCC2)cc1)NO [Compound 27, Heptanedioic acid bis-[(4-morpholin-4-yl-phenylcarbamoyl)-methyl]-amide hydroxyamide]
IC50 [3]: 40 ± 8.4 nM

O=C(CCCCCC(=O)N(CC(=O)NCc1ccccc1)CC(=O)NCc1ccccc1)NO [Compound 13, Heptanedioic acid bis-(benzylcarbamoyl-methyl)-amide hydroxyamide]
IC50 [3]: 61.5 ± 6.3 nM

CN(CCCCCC(=O)NO)CC(=O)NCCc1ccccc1 [Compound 86]
IC50 [5]: 247 ± 33.2 nM

O=C(CCCCCN(CC(=O)N1CCOCC1)CC(=O)N1CCOCC1)NO [Compound 57, 6-[Bis-(2-morpholin-4-yl-2-oxo-ethyl)-amino]-hexanoic acid hydroxyamide]
IC50 [1]: 2280 ± 889 nM

O=C(CCCCCC(=O)N(CC(=O)NC1CCCCC1)CC(=O)NC1CCCCC1)NO [Compound 14, Heptanedioic acid bis-cyclohexylcarbamoylmethyl-amide hydroxyamide]
IC50 [3]: 76 ± 14.1 nM

O=C(CCCCCCCN(CCc1c[nH]c2ccccc12)Cc1ccc(Br)cc1)NO [Compound 83]
IC50 [4]: 204 ± 58.6 nM

O=C(CCCCC(=O)N1CCN(c2ccccc2)CC1)NO [Compound 74, 6-Oxo-6-(4-phenyl-piperazin-1-yl)-hexanoic acid hydroxyamide]
IC50 [2]: 1350 ± 106 nM

O=C(CCCCCC(=O)N(CC(=O)Nc1ccccc1Oc1ccccc1)CC(=O)Nc1ccccc1Oc1ccccc1)NO [Compound 26, Heptanedioic acid bis-[(2-phenoxy-phenylcarbamoyl)-methyl]-amide hydroxyamide]
IC50 [3]: 449 ± 40.3 nM

O=C(CCCCCCCN(CC(=O)Nc1ccccc1)CC(=O)Nc1ccccc1)NO [Compound 43, 8-(Bis-phenylcarbamoylmethyl-amino)-octanoic acid hydroxyamide]
IC50 [1]: 86.5 ± 26.1 nM

O=C(CCCCCCC(=O)N1CCN(C(=O)OCc2ccccc2)CC1)NO [Compound 65]
IC50 [2]: 301 ± 21.2 nM

O=C(CCCCC(=O)N1CCN(c2ccc(Cl)cc2)CC1)NO [Compound 76, 6-[4-(4-Chloro-phenyl)-piperazin-1-yl]-6-oxo-hexanoic acid hydroxyamide]
IC50 [2]: 475 ± 9.1 nM

8-[4-(4-Chloro-phenyl)-piperazin-1-yl]-8-oxo-octanoic acid hydroxyamide [Compound 78]
IC50 [2]: 36.5 ± 4.9 nM

O=C(CCCCCCCCC(=O)N1CCN(c2ccc(Cl)cc2)CC1)NO [Compound 79, 10-[4-(4-Chloro-phenyl)-piperazin-1-yl]-10-oxo-decanoic acid hydroxyamide]
IC50 [2]: 169 ± 30.4 nM

O=C(CCCCCCCN(CC(=O)NCc1ccccc1)CC(=O)NCc1ccccc1)NO [Compound 47, 8-[Bis-(benzylcarbamoyl-methyl)-amino]-octanoic acid hydroxyamide]
IC50 [1]: 181 ± 23.3 nM

O=C(CCCCCN(CC(=O)NCCc1ccccc1)CC(=O)NCCc1ccccc1)NO [Compound 42, 6-[Bis-(phenethylcarbamoyl-methyl)-amino]-hexanoic acid hydroxyamide]
IC50 [1]: 55.5 ± 0.7 nM

O=C(CCCC(=O)N1CCN(c2ccc(Cl)cc2)CC1)NO [Compound 73, 5-[4-(4-Chloro-phenyl)-piperazin-1-yl]-5-oxo-pentanoic acid hydroxyamide]
IC50 [2]: 988 ± 93.3 nM

O=C(CCCCCC(=O)N(CC(=O)Nc1ccc2[nH]ncc2c1)CC(=O)Nc1ccc2[nH]ncc2c1)NO [Compound 1, Heptanedioic acid bis-[(1H-indazol-5-ylcarbamoyl)-methyl]-amide hydroxyamide]
IC50 [3]: 1 nM

O=C(CCCCN(CC(=O)Nc1ccccc1)CC(=O)Nc1ccccc1)NO [Compound 44, 5-(Bis-phenylcarbamoylmethyl-amino)-pentanoic acid hydroxyamide]
IC50 [1]: 133 ± 59.3 nM

O=C(CCCCCCC(=O)N(CC(=O)NCCc1ccccc1)CC(=O)NCCc1ccccc1)NO [Compound 19, Octanedioic acid bis-(phenethylcarbamoyl-methyl)-amide hydroxyamide]
IC50 [3]: 231 ± 65.5 nM

CC(=O)c1ccc(N2CCN(C(=O)CCC(=O)NO)CC2)cc1 [Compound 70]
IC50 [2]: 24000 nM

O=C(CCCCCC(=O)N(CCc1c[nH]c2ccccc12)Cc1ccc(Br)cc1)NO [Compound 61]
IC50 [2]: 162 ± 88.3 nM

O=C(CCCCCCC(=O)N(CCc1ccccc1)Cc1ccccc1)NO [Compound 63]
IC50 [2]: 591 ± 46.6 nM

O=C(CCC(=O)N1CCN(c2ccccc2)CC1)NO [Compound 66]
IC50 [2]: 44300 nM

O=C(CCCC(=O)N1CCN(c2ccccc2)CC1)NO [Compound 71, 5-Oxo-5-(4-phenyl-piperazin-1-yl)-pentanoic acid hydroxyamide]
IC50 [2]: 1220 ± 31.1 nM

O=C(CCC(=O)N1CCN(c2ccc(Cl)cc2)CC1)NO [Compound 67]
IC50 [2]: 16200 nM

CN(CCCCCC(=O)NO)CC(=O)NCc1ccccc1 [Compound 85]
IC50 [5]: 571 ± 52.3 nM

Cn1c(NC(=O)CN(CC(=O)Nc2nc3ccccc3n2C)C(=O)CCCCCC(=O)NO)nc2ccccc21 [Compound 38, Heptanedioic acid bis-[(1-methyl-1H-benzoimidazol-2-ylcarbamoyl)-methyl]-amide hydroxyamide]
IC50 [3]: 84 ± 8.4 nM
